What was measured:
Test in all cases: Cysteine liganding, probe competition
Assay type in all cases: binding
[1] = target: T1, AGPAT6 Glycerol-3-phosphate acyltransferase 4 (Homo sapiens, UniProt Q86UL3); details: for Liganded: AGPAT6 Res# 325, uniprot Q86UL3
T1 construct: Cells were resuspended in cold PBS on ice and sonicated with a probe sonicator to achieve lysis; endogenous in cells
T1 sequence (Q86UL3 38-456): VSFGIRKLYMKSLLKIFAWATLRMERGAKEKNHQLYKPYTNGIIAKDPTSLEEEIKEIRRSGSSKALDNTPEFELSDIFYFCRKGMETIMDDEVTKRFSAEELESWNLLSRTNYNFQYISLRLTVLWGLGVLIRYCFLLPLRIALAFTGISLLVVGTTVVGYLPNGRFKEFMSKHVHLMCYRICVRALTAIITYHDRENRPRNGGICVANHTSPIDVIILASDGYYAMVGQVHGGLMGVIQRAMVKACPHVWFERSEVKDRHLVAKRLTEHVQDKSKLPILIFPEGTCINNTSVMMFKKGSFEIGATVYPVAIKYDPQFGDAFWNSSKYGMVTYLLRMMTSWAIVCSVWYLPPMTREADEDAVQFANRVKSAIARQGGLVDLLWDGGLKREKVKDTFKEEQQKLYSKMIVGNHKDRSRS
Summary of the method: (§1)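 Lysates from probe-sonicated cells in PBS (5 mg/ml proteome) were exposed to compound for 1 hr at 25° C, then labelled with desthiobiotin iodoacetamide probe (10 mM stock) for 1 hr at 25° C. Probe-tagged peptides were streptavidin-enriched after trypsin digestion.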

[2] = target: T2, CDK18 Cyclin-dependent kinase 18 (Homo sapiens, UniProt Q07002); details: for Liganded: CDK18 Res# 183, uniprot Q07002
T2 construct: 200 μL of lysate containing 5 mg/ml proteome was treated with 2 μL of 100× compound stock; endogenous in cells
T2 sequence (Q07002 whole entry): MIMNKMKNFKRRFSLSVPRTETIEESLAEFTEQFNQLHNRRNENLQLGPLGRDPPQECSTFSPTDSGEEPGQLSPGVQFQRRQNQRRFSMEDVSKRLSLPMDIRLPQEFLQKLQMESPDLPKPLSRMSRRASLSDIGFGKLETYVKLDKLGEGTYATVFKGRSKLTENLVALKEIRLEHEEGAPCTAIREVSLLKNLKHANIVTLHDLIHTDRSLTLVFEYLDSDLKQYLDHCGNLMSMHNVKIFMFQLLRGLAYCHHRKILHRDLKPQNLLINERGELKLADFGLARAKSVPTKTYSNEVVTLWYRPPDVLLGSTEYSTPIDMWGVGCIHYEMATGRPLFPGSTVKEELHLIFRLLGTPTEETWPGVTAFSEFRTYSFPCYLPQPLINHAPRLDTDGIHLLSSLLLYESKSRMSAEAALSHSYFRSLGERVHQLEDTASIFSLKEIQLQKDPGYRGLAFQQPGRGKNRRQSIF
Summary of the method: as §1

[3] = target: T3, HECTD1 E3 ubiquitin-protein ligase HECTD1 (Homo sapiens, UniProt Q9ULT8)
T3 construct: Cells were resuspended in cold PBS on ice and sonicated with a probe sonicator to achieve lysis; endogenous in cells
T3 sequence (Q9ULT8 whole entry): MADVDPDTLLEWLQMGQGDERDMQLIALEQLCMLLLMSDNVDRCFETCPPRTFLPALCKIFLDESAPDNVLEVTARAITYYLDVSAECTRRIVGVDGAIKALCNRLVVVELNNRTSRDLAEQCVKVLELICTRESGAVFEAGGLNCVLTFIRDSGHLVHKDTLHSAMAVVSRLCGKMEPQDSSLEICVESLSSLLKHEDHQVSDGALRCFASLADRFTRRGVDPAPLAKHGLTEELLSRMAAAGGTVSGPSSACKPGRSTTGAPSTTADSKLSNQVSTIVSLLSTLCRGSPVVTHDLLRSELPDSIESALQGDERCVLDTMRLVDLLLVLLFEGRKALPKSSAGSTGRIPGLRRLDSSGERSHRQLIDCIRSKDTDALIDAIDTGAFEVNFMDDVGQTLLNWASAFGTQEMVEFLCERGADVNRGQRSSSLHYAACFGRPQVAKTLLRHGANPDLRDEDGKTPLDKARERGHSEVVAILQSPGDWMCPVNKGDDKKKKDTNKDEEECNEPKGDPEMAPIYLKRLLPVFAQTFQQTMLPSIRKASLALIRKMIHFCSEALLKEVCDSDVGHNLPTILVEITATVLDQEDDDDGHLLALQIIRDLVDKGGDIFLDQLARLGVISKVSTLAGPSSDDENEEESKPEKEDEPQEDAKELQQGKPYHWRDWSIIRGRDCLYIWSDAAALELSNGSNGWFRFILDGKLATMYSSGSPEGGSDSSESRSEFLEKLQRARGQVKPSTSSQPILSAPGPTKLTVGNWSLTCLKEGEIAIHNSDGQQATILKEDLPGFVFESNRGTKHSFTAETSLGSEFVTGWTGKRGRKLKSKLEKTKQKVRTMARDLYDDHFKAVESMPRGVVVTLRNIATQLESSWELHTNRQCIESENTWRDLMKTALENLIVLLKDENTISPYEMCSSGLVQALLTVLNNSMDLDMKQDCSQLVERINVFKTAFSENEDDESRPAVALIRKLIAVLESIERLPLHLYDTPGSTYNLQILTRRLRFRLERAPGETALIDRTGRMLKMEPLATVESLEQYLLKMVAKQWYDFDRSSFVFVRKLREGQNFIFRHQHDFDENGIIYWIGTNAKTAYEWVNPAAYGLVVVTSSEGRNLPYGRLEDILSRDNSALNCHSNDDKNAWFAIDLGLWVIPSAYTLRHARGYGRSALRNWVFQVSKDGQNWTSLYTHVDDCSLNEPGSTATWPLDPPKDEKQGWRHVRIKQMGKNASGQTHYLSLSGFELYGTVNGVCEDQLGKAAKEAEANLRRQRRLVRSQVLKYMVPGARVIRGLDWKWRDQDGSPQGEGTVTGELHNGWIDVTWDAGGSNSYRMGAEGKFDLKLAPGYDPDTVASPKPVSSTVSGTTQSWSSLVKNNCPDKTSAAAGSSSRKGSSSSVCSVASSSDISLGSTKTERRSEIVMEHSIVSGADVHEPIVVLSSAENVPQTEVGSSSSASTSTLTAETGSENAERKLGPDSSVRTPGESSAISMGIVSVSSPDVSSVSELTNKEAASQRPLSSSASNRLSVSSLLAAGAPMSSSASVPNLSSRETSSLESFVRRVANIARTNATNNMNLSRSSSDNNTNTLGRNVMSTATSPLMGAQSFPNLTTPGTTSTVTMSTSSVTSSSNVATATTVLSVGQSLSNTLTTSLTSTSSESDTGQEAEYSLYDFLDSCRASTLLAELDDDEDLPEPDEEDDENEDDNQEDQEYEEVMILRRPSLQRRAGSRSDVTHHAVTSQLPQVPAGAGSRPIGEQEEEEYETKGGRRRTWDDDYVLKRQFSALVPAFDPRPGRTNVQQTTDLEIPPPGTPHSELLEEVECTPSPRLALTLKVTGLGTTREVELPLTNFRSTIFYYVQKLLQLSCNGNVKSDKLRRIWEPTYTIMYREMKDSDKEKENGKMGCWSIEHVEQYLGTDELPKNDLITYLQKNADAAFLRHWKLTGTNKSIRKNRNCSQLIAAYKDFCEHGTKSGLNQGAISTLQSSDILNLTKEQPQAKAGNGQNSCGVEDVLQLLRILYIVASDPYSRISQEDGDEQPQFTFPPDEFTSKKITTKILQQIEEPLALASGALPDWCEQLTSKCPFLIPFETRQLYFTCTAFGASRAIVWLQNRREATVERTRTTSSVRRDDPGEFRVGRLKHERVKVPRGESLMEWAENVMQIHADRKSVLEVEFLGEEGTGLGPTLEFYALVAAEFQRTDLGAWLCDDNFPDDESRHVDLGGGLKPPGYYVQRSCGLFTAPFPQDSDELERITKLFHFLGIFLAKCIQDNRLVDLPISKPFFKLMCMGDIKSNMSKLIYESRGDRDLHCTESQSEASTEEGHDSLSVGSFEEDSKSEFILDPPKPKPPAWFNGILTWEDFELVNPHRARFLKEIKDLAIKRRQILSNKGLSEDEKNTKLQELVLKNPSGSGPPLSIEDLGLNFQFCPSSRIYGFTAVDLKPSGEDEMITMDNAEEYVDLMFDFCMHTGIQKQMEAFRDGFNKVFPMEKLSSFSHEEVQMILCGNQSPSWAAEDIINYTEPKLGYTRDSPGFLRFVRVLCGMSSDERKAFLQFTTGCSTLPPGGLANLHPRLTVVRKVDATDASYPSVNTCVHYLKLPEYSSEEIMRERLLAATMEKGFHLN
Summary of the method: as §1

[4] = target: T4, HUWE1 E3 ubiquitin-protein ligase HUWE1 (Homo sapiens, UniProt Q7Z6Z7)
T4 construct: Cells were resuspended in cold PBS on ice and sonicated with a probe sonicator to achieve lysis; endogenous in cells
Summary of the method: as §1

[5] = target: T5, UNC93B1 Protein unc-93 homolog B1 (Homo sapiens, UniProt Q9H1C4)
T5 construct: Cells were resuspended in cold PBS on ice and sonicated with a probe sonicator to achieve lysis; endogenous in cells
T5 sequence (Q9H1C4 1-597): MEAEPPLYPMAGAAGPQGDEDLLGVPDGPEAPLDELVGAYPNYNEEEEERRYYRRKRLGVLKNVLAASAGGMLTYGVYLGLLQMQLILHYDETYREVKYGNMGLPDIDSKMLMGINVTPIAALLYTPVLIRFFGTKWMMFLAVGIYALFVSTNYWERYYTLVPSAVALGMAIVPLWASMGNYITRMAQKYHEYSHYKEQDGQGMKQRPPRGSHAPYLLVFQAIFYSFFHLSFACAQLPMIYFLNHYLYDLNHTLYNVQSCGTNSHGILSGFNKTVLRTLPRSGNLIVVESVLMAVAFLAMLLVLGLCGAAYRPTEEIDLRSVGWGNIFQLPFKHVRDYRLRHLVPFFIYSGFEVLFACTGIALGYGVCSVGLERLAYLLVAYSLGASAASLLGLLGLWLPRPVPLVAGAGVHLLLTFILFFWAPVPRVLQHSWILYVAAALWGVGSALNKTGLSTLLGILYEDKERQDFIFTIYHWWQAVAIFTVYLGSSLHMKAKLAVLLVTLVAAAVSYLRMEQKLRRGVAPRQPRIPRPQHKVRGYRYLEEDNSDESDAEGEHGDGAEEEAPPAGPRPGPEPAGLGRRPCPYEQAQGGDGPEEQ
Summary of the method: as §1

COc1ccc2c(c1)CCCN2C(=O)CCl [KB02] was tested, and the Liganded [1] was “YES”, the Liganded [2] was “YES” and the Liganded ([3]; HECTD1 Res# 1855, uniprot Q9ULT8) was “YES”. For the same compound, the Liganded ([4]; HUWE1 Res# 2181, uniprot Q7Z6Z7) was “YES” and the Liganded ([5]; UNC93B1 Res# 583, uniprot Q9H1C4) was “YES”.
With O=C(CCl)Nc1cc(C(F)(F)F)cc(C(F)(F)F)c1 [KBO3] the Liganded [1] was “YES”, the “100 Max” value ([1]; uniprot Q86UL3) was 66.91 and the 100 ave ([1]; uniprot Q86UL3) was 65.705. For the same compound, the “500 Max” value ([1]; uniprot Q86UL3) was 85.19, the 500 ave ([1]; uniprot Q86UL3) was 85.19 and the Liganded [2] was “YES”. For the same compound, the “100 Max” value ([2]; uniprot Q07002) was 50.67, the 100 ave ([2]; uniprot Q07002) was 28.2075 and the “500 Max” value ([2]; uniprot Q07002) was 80.44. It also gave a 500 ave ([2]; uniprot Q07002) of 79.225, a 100 ave ([3]; uniprot Q9ULT8) of 0.1 and a 500 ave ([3]; uniprot Q9ULT8) of 72.6. For the same compound, the 100 Max ([3]; uniprot Q9ULT8, unit assumed) was 1.2%, the 500 Max ([3]; uniprot Q9ULT8, unit assumed) was 72.6% and the 100 ave ([4]; uniprot Q7Z6Z7) was 9.7. For the same compound, the 100 Max ([4]; uniprot Q7Z6Z7, unit assumed) was 9.7%, the “100 Max” value ([5]; uniprot Q9H1C4) was 29.9385 and the 100 ave ([5]; uniprot Q9H1C4) was 13. The 500 ave ([5]; uniprot Q9H1C4) was 70.38 and the “500 Max” value ([5]; uniprot Q9H1C4, in % (unit assumed)) was 72.3195.
